From patent publication US10752587B2, “Homobispiperidinyl derivatives as liver X receptor beta agonists, compositions and their use” (Merck Sharp & Dohme Corp., priority 2015, dated 2020)

What was measured:
[1] = biological target: T1, glutathione-S-transferase (GST) tagged LXRbeta LBD (ligand binding domain) (Homo sapiens, UniProt P55055); assay: LanthaScreen TR-FRET Liver X Receptor Coactivator Assay, co-activator recruitment to LXRbeta LBD; format: biochemical; details: for Emax: read-out: LXR beta Activity @ max dose (%); for EC50: potency (Inflection Point, IP), co-activator recruitment to LXRbeta LBD, in relation to T0901317, read-out: LXR beta IP
T1 construct: purchased Invitrogen pv4658.pps
T1 sequence (P55055 222-460 limits assumed): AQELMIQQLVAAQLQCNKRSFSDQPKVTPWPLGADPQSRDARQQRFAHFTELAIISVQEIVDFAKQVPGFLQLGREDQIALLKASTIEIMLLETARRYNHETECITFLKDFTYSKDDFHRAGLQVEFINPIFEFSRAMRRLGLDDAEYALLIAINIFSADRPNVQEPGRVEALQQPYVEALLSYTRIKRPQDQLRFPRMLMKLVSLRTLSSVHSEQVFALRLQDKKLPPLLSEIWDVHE
In short: (§1)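 Compound-induced coactivator recruitment by the GST-fused ligand binding domain, detected as TR-FRET between Tb-labelled anti-GST antibody and fluorescein-tagged coactivator peptide after room-temperature incubation. IP and Emax expressed versus T0901317 as reference agonist.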

[2] = biological target: T2, glutathione-S-transferase (GST) tagged LXRalpha LBD (ligand binding domain) (Homo sapiens, UniProt Q13133); assay: LanthaScreen TR-FRET Liver X Receptor Coactivator Assay, co-activator recruitment to LXRalpha LBD; format: biochemical; details: for Emax / LXR alpha Activity @ max dose (%): efficacy at max dose, in relation to reference dual agonist T0901317; for Emax: read-out: LXR alpha Activity @ max dose (%); for EC50 / LXR alpha IP (nM): potency (Inflection Point, IP), co-activator recruitment to LXRalpha LBD, in relation to T0901317; for EC50: read-out: LXR alpha IP
T2 construct: purchased Invitrogen pv4655
T2 sequence (Q13133 209-447 limits assumed): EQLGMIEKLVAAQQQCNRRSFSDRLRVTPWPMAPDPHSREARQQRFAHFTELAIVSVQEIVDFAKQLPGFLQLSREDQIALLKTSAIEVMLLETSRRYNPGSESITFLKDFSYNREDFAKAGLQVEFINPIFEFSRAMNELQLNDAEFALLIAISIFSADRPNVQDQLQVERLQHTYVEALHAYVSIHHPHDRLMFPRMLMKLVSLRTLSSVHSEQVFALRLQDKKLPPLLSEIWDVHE
In short: as §1

[3] = efficacy at max dose, in relation to reference dual agonist T0901317

Row | Emax [1, 3] | EC50 [1] | Emax [2] | EC50 [2] | LXR alpha IP (nM) [2] | LXR alpha Activity @ max dose (%) [2] | LXR beta Activity @ max dose (%) [1, 3] | SMILES
1 | 67% | 0.01 µM | 13% |  | NO IP |  |  | CN(C)C(=O)c1ccc(N2CCC(CC3CCN(C(=O)[C@](O)(c4cccc(OC(F)(F)F)c4)C(F)(F)F)CC3)CC2)nc1Cl [Example 7-75, 2-chloro-N,N-dimethyl-6-{4-[(1-{(2R)-3,3,3-trifluoro-2-hydroxy-2-[3-(trifluoromethoxy)phenyl]propanoyl}piperidin-4-yl)methyl]piperidin-1-yl}pyridine-3-carboxamide]
2 | 120% | 0.091 µM | 50% | 3.79 µM |  |  |  | CNC(=O)c1ccc(N2CCC(OC3CCN(C(=O)C(O)(c4cccc(F)c4)C(F)(F)F)CC3)CC2)cc1Cl (stereo not shown) [Example 7-30, 2-chloro-N-methyl-4-[4-({1-[3,3,3-trifluoro-2-(3-fluorophenyl)-2-hydroxypropanoyl]piperidin-4-yl}oxy)piperidin-1-yl] benzamide]
3 | 86% | 0.009 µM | 22% | 0.429 µM |  |  |  | COc1cccc([C@@](O)(C(=O)N2CCC(CC3CCN(c4ccc(C(=O)N(C)C)c(Cl)n4)CC3)CC2)C(F)(F)C(F)(F)F)c1 [Example 7-79, 2-chloro-N,N-dimethyl-6-[4-({1-[(2R)-3,3,4,4,4-pentafluoro-2-hydroxy-2-(3-methoxyphenyl)butanoyl]piperidin-4-yl}methyl)piperidin-1-yl]pyridine-3-carboxamide]
4 | 61% | 0.007 µM | 3% |  | NO IP |  |  | COc1cccc([C@@](O)(C(=O)N2CCC(CC3CCN(c4ccc(C(=O)N(C)C)c(OC)n4)CC3)CC2)C(F)(F)F)c1 [Example 7-19, 2-methoxy-N,N-dimethyl-6-[4-({1-[(2R)-3,3,3-trifluoro-2-hydroxy-2-(3-methoxyphenyl)propanoyl]piperidin-4-yl}methyl)piperidin-1-yl]pyridine-3-carboxamide]
5 | 72% | 1.15 µM | 4% |  | NO IP |  |  | COc1cccc([C@@](O)(C(=O)N2CCC(CC3CN(c4ccc(C(=O)N(C)C)c(C)n4)C3)CC2)C(F)(F)F)c1 [Example 7-13, N,N,2-trimethyl-6-[3-({1-[(2R)-3,3,3-trifluoro-2-hydroxy-2-(3-methoxyphenyl)propanoyl]piperidin-4-yl}methyl)azetidin-1-yl]pyridine-3-carboxamide]
6 | 55% | 0.006 µM |  |  | NO IP | 1% |  | CN(C)C(=O)c1ccc(N2CCC(CC3CCN(C(=O)[C@](O)(c4cc(Cl)cc(Cl)c4)C(F)(F)F)CC3)CC2)nc1Cl [Example 7-93, 2-chloro-6-[4-({1-[(2R)-2-(3,5-dichlorophenyl)-3,3,3-trifluoro-2-hydroxypropanoyl]piperidin-4-yl}methyl)piperidin-1-yl]-N,N-dimethylpyridine-3-carboxamide]
7 | 102% | 0.013 µM | 47% | 0.173 µM |  |  |  | CNC(=O)c1ccc(N2CCC(CC3CCN(C(=O)[C@](O)(c4ccccc4)C(F)(F)F)CC3)CC2)nc1Cl [Example 7-141, 2-chloro-N-methyl-6-[4-({1-[(2R)-3,3,3-trifluoro-2-hydroxy-2-phenylpropanoyl]piperidin-4-yl}methyl)piperidin-1-yl]pyridine-3-carboxamide]
8 | 85% | 0.012 µM | 27% | 0.425 µM |  |  |  | CN(C)C(=O)c1ccc(N2CCC(CC3CCN(C(=O)[C@](O)(c4ccccc4F)C(F)(F)F)CC3)CC2)nc1Cl [Example 7-80, 2-chloro-N,N-dimethyl-6-[4-({1-[(2R)-3,3,3-trifluoro-2-(2-fluorophenyl)-2-hydroxypropanoyl]piperidin-4-yl}methyl)piperidin-1-yl]pyridine-3-carboxamide]
9 |  | 0.019 µM |  |  | NO IP | 7% | 60% | CNC(=O)c1ccc(N2CCC(CC3CCN(C(=O)[C@](O)(c4cccc(OC)c4)C(F)(F)F)CC3)CC2)cc1Cl [Example 7-127, 2-chloro-N-methyl-4-[4-({1-[(2R)-3,3,3-trifluoro-2-hydroxy-2-(3-methoxyphenyl)propanoyl]piperidin-4-yl}methyl)piperidin-1-yl]benzamide]

Continued, molecule first:

Row | SMILES | Emax [1, 3] | EC50 [1] | Emax [2] | EC50 [2] | LXR alpha IP (nM) [2] | LXR alpha Activity @ max dose (%) [2] | LXR beta Activity @ max dose (%) [1, 3]
10 | CN(C)C(=O)c1ccc(N2CCC(CC3CCN(C(=O)C(O)(c4cccs4)C(F)(F)F)CC3)CC2)cc1Cl (stereo not shown) [Example 2-37, 2-chloro-N,N-dimethyl-4-(4-{[1-(3,3,3-trifluoro-2-hydroxy-2-thiophen-2-ylpropanoyl)piperidin-4-yl]methyl}piperidin-1-yl)benzamide] | 73% | 0.029 µM | 33% | 0.62 µM |  |  | 
11 | CN(C)C(=O)c1ccc(N2CCC(CC3CCN(C(=O)[C@](O)(c4cccc(Br)c4)C(F)(F)F)CC3)CC2)cc1 [Example 2-143, 4-[4-({1-[(2R)-2-(3-bromo-phenyl)-3,3,3-trifluoro-2-hydroxy-propanoyl]piperidin-4-yl}methyl)piperidin-1-yl]-N,N-dimethyl-benzamide] | 69% | 0.046 µM | 23% | 0.413 µM |  |  | 
12 | CN(C)C(=O)c1ccc(N2CCC(CC3CCN(C(=O)C(O)(Cc4ccccc4)C(F)(F)F)CC3)CC2)cc1Cl (stereo not shown) [Example 2-36, 4-(4-{[1-(2-benzyl-3,3,3-trifluoro-2-hydroxy-propanoyl)piperidin-4-yl]methyl}piperidin-1-yl)-2-chloro-N,N-dimethyl-benzamide] | 126% | 0.11 µM | 43% | 1.06 µM |  |  | 
13 | CN(C)C(=O)c1ccc(N2CCC(CC3(C)CCN(C(=O)[C@](O)(c4ccccc4)C(F)(F)F)CC3)CC2)cc1Cl [Example 2-44, 2-chloro-N,N-dimethyl-4-[4-({4-methyl-1-[(2R)-3,3,3-trifluoro-2-hydroxy-2-phenyl-propanoyl]piperidin-4-yl}methyl)piperidin-1-yl]benzamide] | 37% | 0.001 µM | 20% | 0.032 µM |  |  | 
14 | CN(C)C(=O)c1ccc(N2CCC(CC3CCN(C(=O)[C@](O)(c4ccccc4)C(F)(F)F)C3)CC2)cc1Cl (stereo partly drawn) [Example 2-71, 2-chloro-N,N-dimethyl-4-[4-({1-[(2R)-3,3,3-trifluoro-2-hydroxy-2-phenyl-propanoyl]pyrrolidin-3-yl}methyl)piperidin-1-yl]benzamide] | 64% | 0.084 µM | 9% |  | NO IP |  | 
15 | CCc1cccc([C@@](O)(C(=O)N2CC(CC3CCN(c4ccc(C(=O)N(C)C)c(Cl)c4)CC3)C2)C(F)(F)F)c1 [Example 2-64, 2-chloro-4-[4-({1-[(2R)-2-(3-ethyl-phenyl)-3,3,3-trifluoro-2-hydroxy-propanoyl]azetidin-3-yl}methyl)piperidin-1-yl]-N,N-dimethyl-benzamide] | 75% | 0.03 µM | 18% | 1.07 µM |  |  | 
16 | CN(C)C(=O)c1ccc(N2CCC(CC3CCN(C(=O)[C@](O)(c4ccccc4)C(F)(F)C(F)(F)F)CC3)CC2)cc1 [Example 2-140, N,N-dimethyl-4-[4-({1-[(2R)-3,3,4,4,4-pentafluoro-2-hydroxy-2-phenylbutanoyl]piperidin-4-yl}methyl)piperidin-1-yl]benzamide] | 118% | 0.084 µM | 43% | 0.836 µM |  |  | 
17 | CN(C)C(=O)c1ccc(N2CCC(CC3CCN(C(=O)C(O)(c4cccc(F)c4)C(F)F)CC3)CC2)cc1Cl (stereo not shown) [Example 2-122, 2-chloro-4-[4-({1-[3,3-difluoro-2-(3-fluorophenyl)-2-hydroxy-propanoyl]piperidin-4-yl}methyl)piperidin-1-yl]-N,N-dimethyl-benzamide] | 69% | 0.027 µM | 29% | 0.543 µM |  |  | 
18 | CN(C)C(=O)c1ccc(N2CCC(OC3CCN(C(=O)C4(c5ccccc5)CCC4)CC3)CC2)cc1Cl [Example 2-27, 2-chloro-N,N-dimethyl-4-[4-({1-[(1-phenyl-cyclobutyl)carbonyl]piperidin-4-yl}oxy)piperidin-1-yl]benzamide] | 82% | 0.371 µM | 19% | 4.62 µM |  |  | 
19 | CC(C)(C(=O)N1CCC(CC2CCN(c3cccc(S(C)(=O)=O)c3)CC2)CC1)c1ccccc1 [Example 2-73, 1-(2-methyl-2-phenylpropanoyl)-4-({1-[3-(methylsulfonyl)phenyl]piperidin-4-yl}methyl)piperidine] | 77% | 0.223 µM | 35% | 5.37 µM |  |  | 
